Here are results for two molecules from US20230190755A1, “Topical formulations of PI3K-delta inhibitors” (Incyte Corporation, priority 2021, published 2023).

The nature of data set [1]: IC90 value in the dermis. On the procedure:
Based on initial studies it is believed that topical administration of a strength of 0.01% may result in mean plasma concentration of approximately 1 nM at steady state.

The nature of data set [2]: Free fraction by equilibrium dialysis, human plasma and homogenized human skin. Type of data set: in vitro ADME. As for the experimental part:
(§1) The concentration of Compound A was measured in the epidermis, dermis, and plasma 24 hours post application. Dermal concentrations in minipigs dosed with 1.0% w/w topical formulation were 8× higher compared with dermal concentrations in minipigs dosed with the 0.1% topical formulation. The epidermal concentration for 1.0% w/w topical formulation was 6× higher compared with the 0.1% w/w topical dose. The epidermal concentrations accounted for the combined drug levels in the stratum corneum and viable epidermis layers (i.e., skin samples were not tape stripped). Relatedly, the free fraction of Compound A in plasma and homogenized human skin was evaluated by equilibrium dialysis studies. The mean free fraction in human plasma and skin was […] respectively. In minipigs, the free fraction in plasma was measured at 3.1%.
Background: Equilibrium dialysis compares concentrations on both sides of a semipermeable membrane.

The nature of data set [3]: Free fraction in plasma, minipig. The class given is in vitro ADME. As for the experimental part:
as §1

The target in data set [4] is PI3Kδ (p110δ/p85α) (Homo sapiens, UniProt O00329). Briefly: PI3Kδ scintillation proximity assay (Example 8). The class given is biochemical. Conditions: 20 μM ATP, 4 nM PI3Kδ. An excerpt: Lipid kinase substrate, D-myo-Phosphatidylinositol 4,5-bisphosphate (PtdIns(4,5)P2)D (+)-sn-1,2-di-O-octanoylglyceryl, 3-O-phospho linked (PIP2), CAS 204858-53-7, was purchased from Echelon Biosciences (Salt Lake City, Utah). PI3Kδ (p110δ/p85α) was purchased from Millipore (Bedford, Mass.). ATP, MgCl2, DTT, EDTA, MOPS and CHAPS were purchased from Sigma-Aldrich (St. Louis, Mo.). Wheat Germ Agglutinin (WGA) YSi SPA Scintillation Beads was purchased from GE healthcare life sciences (Piscataway, N.J.).
Chain of PI3Kδ (p110δ/p85α) (O00329 whole entry): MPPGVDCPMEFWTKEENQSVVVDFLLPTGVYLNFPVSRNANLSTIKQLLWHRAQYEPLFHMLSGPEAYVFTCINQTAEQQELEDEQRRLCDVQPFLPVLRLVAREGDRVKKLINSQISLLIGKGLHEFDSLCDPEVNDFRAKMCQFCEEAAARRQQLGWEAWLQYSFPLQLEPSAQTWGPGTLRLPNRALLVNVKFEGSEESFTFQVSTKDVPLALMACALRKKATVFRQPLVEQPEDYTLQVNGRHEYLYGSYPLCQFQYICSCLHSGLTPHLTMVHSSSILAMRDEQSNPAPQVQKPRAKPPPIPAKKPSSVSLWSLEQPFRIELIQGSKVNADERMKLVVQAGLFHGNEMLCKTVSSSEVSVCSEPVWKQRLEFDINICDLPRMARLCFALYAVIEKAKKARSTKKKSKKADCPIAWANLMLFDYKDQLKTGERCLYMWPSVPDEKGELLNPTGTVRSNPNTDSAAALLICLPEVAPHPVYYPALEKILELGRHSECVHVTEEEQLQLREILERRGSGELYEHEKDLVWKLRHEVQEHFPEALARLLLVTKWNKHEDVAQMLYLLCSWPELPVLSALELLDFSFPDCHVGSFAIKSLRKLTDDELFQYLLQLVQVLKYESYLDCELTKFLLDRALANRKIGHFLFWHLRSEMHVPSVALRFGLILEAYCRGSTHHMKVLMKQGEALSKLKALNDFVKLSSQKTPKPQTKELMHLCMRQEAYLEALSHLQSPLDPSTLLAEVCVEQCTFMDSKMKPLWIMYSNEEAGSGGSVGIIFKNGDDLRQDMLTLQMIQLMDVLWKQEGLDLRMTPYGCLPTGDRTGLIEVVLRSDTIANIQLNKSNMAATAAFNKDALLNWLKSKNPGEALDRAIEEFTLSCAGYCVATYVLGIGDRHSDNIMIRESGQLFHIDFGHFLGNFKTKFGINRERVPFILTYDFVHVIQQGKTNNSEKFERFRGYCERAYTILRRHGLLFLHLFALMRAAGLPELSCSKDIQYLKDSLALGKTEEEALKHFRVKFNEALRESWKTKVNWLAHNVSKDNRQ
Chain of PI3Kδ (p110δ/p85α) (P27986 whole entry partner): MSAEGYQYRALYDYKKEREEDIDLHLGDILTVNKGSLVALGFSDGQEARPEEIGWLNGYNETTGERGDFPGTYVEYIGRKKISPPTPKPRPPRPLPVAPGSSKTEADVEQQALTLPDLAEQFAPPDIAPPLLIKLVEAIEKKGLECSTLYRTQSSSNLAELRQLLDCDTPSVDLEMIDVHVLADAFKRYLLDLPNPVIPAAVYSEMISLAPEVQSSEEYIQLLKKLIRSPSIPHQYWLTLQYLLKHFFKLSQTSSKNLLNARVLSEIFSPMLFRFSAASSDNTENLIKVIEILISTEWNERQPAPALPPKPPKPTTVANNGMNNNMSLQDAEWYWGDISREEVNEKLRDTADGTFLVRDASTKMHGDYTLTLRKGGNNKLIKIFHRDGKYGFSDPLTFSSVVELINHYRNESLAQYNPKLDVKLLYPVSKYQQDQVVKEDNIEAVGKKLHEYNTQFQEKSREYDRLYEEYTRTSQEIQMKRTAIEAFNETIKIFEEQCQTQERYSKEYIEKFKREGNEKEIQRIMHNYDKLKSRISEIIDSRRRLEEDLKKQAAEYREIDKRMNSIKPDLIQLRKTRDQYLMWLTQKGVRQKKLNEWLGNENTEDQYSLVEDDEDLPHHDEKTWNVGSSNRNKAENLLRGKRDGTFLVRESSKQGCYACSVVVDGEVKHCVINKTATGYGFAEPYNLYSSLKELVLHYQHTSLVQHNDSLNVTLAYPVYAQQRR
The kinase reaction was conducted in polystyrene 384-well matrix white plate from Thermo Fisher Scientific in a final volume of 25 μL. Inhibitors were first diluted serially in DMSO and added to the plate wells before the addition of other reaction components. The final concentration of DMSO in the assay was 0.5%. The PI3K assays were carried out at room temperature in 20 mM MOPS, pH 6.7, 10 mM MgCl2, 5 mM DTT and CHAPS 0.03%. […] ATP, 4 nM PI3Kδ. Reactions were incubated for 210 min and terminated by the addition of 40 μL SPA beads suspended in quench buffer: 150 mM potassium phosphate pH 8.0, 20% glycerol. 25 mM EDTA, 400 μM ATP. […] After the plate sealing, plates were shaken overnight at room temperature and centrifuged at 1800 rpm for 10 minutes, the radioactivity of the product was determined by scintillation counting on Topcount (Perkin-Elmer). […]

The target of data set [5] is T1, PI3Kγ (Homo sapiens, UniProt P48736).
T1 construct: purchased Millipore (Bedford, Mass.)
T1 sequence (P48736 whole entry): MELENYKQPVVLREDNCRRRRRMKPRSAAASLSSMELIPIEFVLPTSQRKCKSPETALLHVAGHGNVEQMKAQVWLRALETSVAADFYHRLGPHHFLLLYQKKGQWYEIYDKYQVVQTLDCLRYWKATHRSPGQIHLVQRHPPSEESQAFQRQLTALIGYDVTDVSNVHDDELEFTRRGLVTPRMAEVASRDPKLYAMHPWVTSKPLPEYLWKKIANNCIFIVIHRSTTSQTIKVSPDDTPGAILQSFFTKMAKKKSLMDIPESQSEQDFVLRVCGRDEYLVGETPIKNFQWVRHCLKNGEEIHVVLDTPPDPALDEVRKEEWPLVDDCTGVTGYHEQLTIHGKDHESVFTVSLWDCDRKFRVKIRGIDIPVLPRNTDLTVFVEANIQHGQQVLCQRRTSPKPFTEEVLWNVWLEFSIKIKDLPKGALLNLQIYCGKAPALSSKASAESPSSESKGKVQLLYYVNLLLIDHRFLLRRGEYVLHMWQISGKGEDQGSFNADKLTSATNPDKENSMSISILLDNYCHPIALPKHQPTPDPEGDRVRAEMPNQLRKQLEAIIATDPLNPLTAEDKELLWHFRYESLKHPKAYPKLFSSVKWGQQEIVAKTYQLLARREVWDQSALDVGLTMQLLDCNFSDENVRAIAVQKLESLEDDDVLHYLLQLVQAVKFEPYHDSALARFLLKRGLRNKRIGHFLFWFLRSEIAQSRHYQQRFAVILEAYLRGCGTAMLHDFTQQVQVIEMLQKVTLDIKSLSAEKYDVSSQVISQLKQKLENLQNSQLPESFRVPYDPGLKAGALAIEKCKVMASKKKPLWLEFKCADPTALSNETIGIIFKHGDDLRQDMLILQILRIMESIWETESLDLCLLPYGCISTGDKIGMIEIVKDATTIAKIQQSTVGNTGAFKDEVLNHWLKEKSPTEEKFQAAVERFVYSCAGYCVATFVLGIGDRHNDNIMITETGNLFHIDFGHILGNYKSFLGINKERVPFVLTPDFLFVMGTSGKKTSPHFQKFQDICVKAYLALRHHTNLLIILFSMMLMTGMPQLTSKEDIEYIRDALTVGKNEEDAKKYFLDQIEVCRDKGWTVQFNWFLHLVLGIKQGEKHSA
Briefly: PI3K enzyme assay of Example 7 ([γ-33P]ATP filter plate). Type of data set: biochemical. On the procedure:
(§2) Materials: Lipid kinase substrate, phosphoinositol-4,5-bisphosphate (PIP2), are purchased from Echelon Biosciences (Salt Lake City, Utah). PI3K isoforms α, β, δ and γ are purchased from Millipore (Bedford, Mass.). ATP, MgCl2, DTT, EDTA, MOPS and CHAPS are purchased from Sigma-Aldrich (St. Louis, Mo.).
(§3) The kinase reaction are conducted in clear-bottom 96-well plate from Thermo Fisher Scientific in a final volume of 24 μL. Inhibitors are first diluted serially in DMSO and added to the plate wells before the addition of other reaction components. The final concentration of DMSO in the assay is 0.5%. The PI3K assays are carried out at room temperature in 20 mM MOPS, pH 6.7, 10 mM MgCl2, 5 mM DTT and CHAPS 0.03%. The reaction mixture is prepared containing 50 μM PIP2, kinase and varying concentration of inhibitors. Reactions are initiated by the addition of ATP containing 2.2 μCi [γ-^33P]ATP to a final concentration of 1000 μM. The final concentration of PI3K isoforms α, β, δ and γ in the assay were 1.3, 9.4, 2.9 and 10.8 nM, respectively. Reactions are incubated for 180 minutes and terminated by the addition of 100 μL of 1 M potassium phosphate pH 8.0, 30 mM EDTA quench buffer. A 100 μL aliquot of the reaction solution are then transferred to 96-well Millipore MultiScreen IP 0.45 μm PVDF filter plate (The filter plate is prewetted with 200 μL 100% ethanol, distilled water, and 1 M potassium phosphate pH 8.0, respectively). The filter plate is aspirated on a Millipore Manifold under vacuum and washed with 18×200 μL wash buffer containing 1 M potassium phosphate pH 8.0 and 1 mM ATP. After drying by aspiration and blotting, the plate is air dried in an incubator at 37° C. overnight. Packard TopCount adapter (Millipore) is then attached to the plate followed with addition of 120 μL Microscint 20 scintillation cocktail (Perkin Elmer) in each well. After the plate sealing, the radioactivity of the product is determined by scintillation counting on Topcount (Perkin-Elmer). IC50 determination is performed by fitting the curve of percent control activity versus the log of the inhibitor concentration using the GraphPad Prism 3.0 software.

Data set [6] deals with T2, PI3Kβ (Homo sapiens, UniProt P42338).
T2 construct: purchased Millipore (Bedford, Mass.)
T2 sequence (P42338 whole entry): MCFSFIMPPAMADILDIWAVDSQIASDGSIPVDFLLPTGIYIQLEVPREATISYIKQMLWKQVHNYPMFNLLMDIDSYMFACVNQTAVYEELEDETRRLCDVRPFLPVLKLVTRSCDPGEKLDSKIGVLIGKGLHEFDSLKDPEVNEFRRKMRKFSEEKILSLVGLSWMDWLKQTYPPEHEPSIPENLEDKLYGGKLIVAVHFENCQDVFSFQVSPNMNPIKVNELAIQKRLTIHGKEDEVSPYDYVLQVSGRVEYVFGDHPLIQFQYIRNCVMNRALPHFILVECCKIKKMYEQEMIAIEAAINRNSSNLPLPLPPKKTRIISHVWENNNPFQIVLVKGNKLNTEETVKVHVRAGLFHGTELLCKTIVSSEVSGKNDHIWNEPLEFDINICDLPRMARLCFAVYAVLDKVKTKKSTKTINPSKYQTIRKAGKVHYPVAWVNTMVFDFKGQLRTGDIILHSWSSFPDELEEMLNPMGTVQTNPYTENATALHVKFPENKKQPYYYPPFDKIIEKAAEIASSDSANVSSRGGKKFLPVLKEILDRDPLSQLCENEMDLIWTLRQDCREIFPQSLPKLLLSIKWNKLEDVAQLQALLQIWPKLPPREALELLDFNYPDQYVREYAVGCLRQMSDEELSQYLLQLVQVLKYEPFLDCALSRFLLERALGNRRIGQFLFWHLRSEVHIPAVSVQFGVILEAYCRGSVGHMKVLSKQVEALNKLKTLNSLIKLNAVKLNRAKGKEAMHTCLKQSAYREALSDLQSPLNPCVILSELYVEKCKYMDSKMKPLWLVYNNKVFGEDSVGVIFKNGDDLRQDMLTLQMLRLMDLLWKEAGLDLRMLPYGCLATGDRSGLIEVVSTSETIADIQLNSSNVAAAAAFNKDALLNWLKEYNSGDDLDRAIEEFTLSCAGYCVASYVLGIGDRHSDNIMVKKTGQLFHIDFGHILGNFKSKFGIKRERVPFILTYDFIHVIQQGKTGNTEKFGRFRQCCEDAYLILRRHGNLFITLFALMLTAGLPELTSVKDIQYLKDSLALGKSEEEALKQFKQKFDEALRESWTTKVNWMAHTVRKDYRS
T2 sequence (P27986 whole entry partner): as the sequence (P27986 whole entry partner) above
Described as above. Type of data set: biochemical. On the procedure: as §2, §3

Data set [7] concerns the target T3, PI3Kδ (Homo sapiens, UniProt O00329).
T3 construct: purchased Millipore (Bedford, Mass.)
The description is as above. Type of data set: biochemical. As for the experimental part:
as §2, §3

For data set [8], the target named is T4, PI3Kα (Homo sapiens, UniProt P42336).
T4 construct: purchased Millipore (Bedford, Mass.)
T4 sequence (P42336 whole entry): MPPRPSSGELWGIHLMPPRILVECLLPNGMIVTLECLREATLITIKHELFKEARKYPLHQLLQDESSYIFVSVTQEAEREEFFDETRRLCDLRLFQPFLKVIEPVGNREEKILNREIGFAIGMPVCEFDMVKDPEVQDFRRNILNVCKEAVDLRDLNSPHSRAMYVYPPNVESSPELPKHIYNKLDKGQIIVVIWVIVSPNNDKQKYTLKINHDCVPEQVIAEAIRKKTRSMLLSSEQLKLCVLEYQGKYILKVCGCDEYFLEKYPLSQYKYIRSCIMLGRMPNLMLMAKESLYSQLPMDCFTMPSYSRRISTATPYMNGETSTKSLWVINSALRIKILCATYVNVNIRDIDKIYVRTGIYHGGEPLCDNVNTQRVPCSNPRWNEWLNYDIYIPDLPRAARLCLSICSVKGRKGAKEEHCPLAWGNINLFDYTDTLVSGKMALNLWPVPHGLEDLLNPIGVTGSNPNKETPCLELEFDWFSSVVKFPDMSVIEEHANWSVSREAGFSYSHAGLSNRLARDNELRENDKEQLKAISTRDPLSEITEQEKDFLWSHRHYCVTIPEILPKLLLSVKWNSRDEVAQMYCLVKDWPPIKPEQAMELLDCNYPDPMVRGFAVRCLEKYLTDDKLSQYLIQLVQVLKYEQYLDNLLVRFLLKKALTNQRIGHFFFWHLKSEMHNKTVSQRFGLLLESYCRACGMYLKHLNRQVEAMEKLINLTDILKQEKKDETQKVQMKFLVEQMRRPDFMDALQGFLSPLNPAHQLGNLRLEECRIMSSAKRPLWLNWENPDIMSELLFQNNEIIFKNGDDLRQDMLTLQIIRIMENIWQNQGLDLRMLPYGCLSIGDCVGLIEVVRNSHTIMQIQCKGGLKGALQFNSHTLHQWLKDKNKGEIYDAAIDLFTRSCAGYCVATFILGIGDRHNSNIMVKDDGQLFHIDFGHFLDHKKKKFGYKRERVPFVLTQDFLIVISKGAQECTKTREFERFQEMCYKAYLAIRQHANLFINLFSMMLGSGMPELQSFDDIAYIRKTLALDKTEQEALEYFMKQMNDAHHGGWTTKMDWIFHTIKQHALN
T4 sequence (P27986 whole entry partner): as the sequence (P27986 whole entry partner) above
The description is as above. The class given is biochemical. As for the experimental part: as §2, §3

The IC90 is the concentration needed for an effect of 90%. Usually IC50 stands for the concentration that inhibits the measured activity by half. A higher IC50 goes with a need for much substance.

Where a name gives a salt, the structure may show the parent alone.

For `CCOc1c([C@H](C)n2nc(C)c3c(N)ncnc32)cc(Cl)c(F)c1[C@@H]1CNC(=O)C1` [Compound A, (R)-4-(3-((S)-1-(4-amino-3-methyl-1H-pyrazolo[3,4-d]pyrimidin-1-yl)ethyl)-5-chloro-2-ethoxy-6-fluorophenyl)pyrrolidin-2-one], the IC90 in data set [1] is approximately 20 nM. Also, the fraction unbound in data set [2] (homogenized skin, read-out: Mean free fraction in homogenized human skin) is 0.33; in data set [2] (plasma, read-out: Mean free fraction in human plasma) it was 0.074; in data set [3], 0.031. Further, the IC50 in data set [4] was less than 10 nM.

For the molecule `CCOc1c([C@H](C)n2nc(C)c3c(N)ncnc32)cc(Cl)c(F)c1[C@@H]1CNC(=O)C1` [Compound A HCl, (R)-4-(3-((S)-1-(4-Amino-3-methyl-1H-pyrazolo[3,4-d]pyrimidin-1-yl)ethyl)-5-chloro-2-ethoxy-6-fluorophenyl)pyrrolidin-2-one Hydrochloric Acid Salt], the “selectivity for PI3Kδ over PI3Kγ” value in data set [5] is given as more than 100 fold. In addition, in data set [6], the “selectivity for PI3Kδ over PI3Kβ” value was more than 100 fold. Moreover, the “selectivity for PI3Kδ (in words)” value in data set [7] is “selective inhibitor for PI3Kδ”. Besides, in data set [8], the “selectivity for PI3Kδ over PI3Kα” value is given as more than 100 fold.
